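Step 1: Grow cells in 96-well plates. Step 2: Expose to compound for 48 hours at 5 concentrations. Step 3: Interpolate endpoints linearly; if unreached, use highest concentration. GI50: concentration for 50% inhibition of growth. TGI: total growth inhibition.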
Tests used:
Test in all cases: NCI anticancer screen, dose series, 48 h; in the data active means GI50 below about 0.43 µM; inactive means the rest
A498 renal = system: A498 renal
SF-268 CNS = system: SF-268 CNS
OVCAR-8 ovarian = system: OVCAR-8 ovarian
HT29 colon = system: HT29 colon
ACHN renal = system: ACHN renal
BT-549 breast = system: BT-549 breast
SF-295 CNS = system: SF-295 CNS
MDA-MB-435 = system: MDA-MB-435
SK-MEL-2 melanoma = system: SK-MEL-2 melanoma
U251 CNS = system: U251 CNS
HOP-62 NSCLC = system: HOP-62 NSCLC
SR leukemia = system: SR leukemia
NCI-H522 lung = system: NCI-H522 lung
SK-MEL-5 melanoma = system: SK-MEL-5 melanoma
COLO 205 colon = system: COLO 205 colon
OVCAR-4 ovarian = system: OVCAR-4 ovarian
NCI-H460 lung = system: NCI-H460 lung
HS 578T breast = system: HS 578T breast
SF-539 CNS = system: SF-539 CNS
CCRF-CEM leukemia = system: CCRF-CEM leukemia
MOLT-4 leukemia = system: MOLT-4 leukemia
RXF 393 renal = system: RXF 393 renal
CAKI-1 renal = system: CAKI-1 renal
HOP-92 NSCLC = system: HOP-92 NSCLC
MCF7 breast = system: MCF7 breast
A549 NSCLC = system: A549 NSCLC
HL-60(TB) leukemia = system: HL-60(TB) leukemia
OVCAR-3 ovarian = system: OVCAR-3 ovarian
SW-620 colon = system: SW-620 colon
K-562 leukemia = system: K-562 leukemia
SK-MEL-28 melanoma = system: SK-MEL-28 melanoma
SK-OV-3 ovarian = system: SK-OV-3 ovarian
SN12C renal = system: SN12C renal
SNB-75 CNS = system: SNB-75 CNS
OVCAR-5 ovarian = system: OVCAR-5 ovarian
TK-10 renal = system: TK-10 renal
HCC-2998 colon = system: HCC-2998 colon
MDA-MB-231 breast = system: MDA-MB-231 breast
UACC-257 melanoma = system: UACC-257 melanoma
NCI/ADR-RES ovarian = system: NCI/ADR-RES ovarian
RPMI-8226 leukemia = system: RPMI-8226 leukemia
SNB-19 CNS = system: SNB-19 CNS
M14 melanoma = system: M14 melanoma
LOX IMVI melanoma = system: LOX IMVI melanoma
HCT-15 colon = system: HCT-15 colon
UO-31 renal = system: UO-31 renal
HCT-116 colon = system: HCT-116 colon
DU-145 prostate = system: DU-145 prostate
IGROV1 ovarian = system: IGROV1 ovarian
786-0 renal = system: 786-0 renal
NCI-H226 lung = system: NCI-H226 lung
KM12 colon = system: KM12 colon
MALME-3M melanoma = system: MALME-3M melanoma
T-47D breast = system: T-47D breast
NCI-H23 lung = system: NCI-H23 lung
EKVX NSCLC = system: EKVX NSCLC
UACC-62 melanoma = system: UACC-62 melanoma

CCN(CCNS(C)(=O)=O)c1ccc(N)c(C)c1
29.3 µM: TGI (SK-MEL-2 melanoma)
59.6 µM: TGI (MOLT-4 leukemia)
8.58 µM: TGI (OVCAR-3 ovarian)
25.7 µM: TGI (HL-60(TB) leukemia)
33.9 µM: TGI (HCC-2998 colon)
16.3 µM: TGI (HOP-92 NSCLC)
37.8 µM: TGI (SNB-75 CNS)
21.9 µM: TGI (786-0 renal)
inactive: GI50 (A498 renal) 12.6 µM | GI50 (SF-268 CNS) 11.3 µM | GI50 (OVCAR-8 ovarian) 3.94 µM | GI50 (HT29 colon) 6.16 µM | GI50 (ACHN renal) 2.09 µM | GI50 (BT-549 breast) 10.1 µM | GI50 (SF-295 CNS) 16.7 µM | GI50 (MDA-MB-435) 2.75 µM | GI50 (SK-MEL-2 melanoma) 14.3 µM | GI50 (U251 CNS) 18.1 µM | GI50 (HOP-62 NSCLC) 16.2 µM | GI50 (SR leukemia) 5.14 µM | GI50 (NCI-H522 lung) 2 µM | GI50 (SK-MEL-5 melanoma) 11.9 µM | GI50 (COLO 205 colon) 13.4 µM | GI50 (OVCAR-4 ovarian) 6.39 µM | GI50 (NCI-H460 lung) 23.2 µM | GI50 (HS 578T breast) 32.9 µM | GI50 (SF-539 CNS) 9.08 µM | GI50 (CCRF-CEM leukemia) 2.29 µM | GI50 (MOLT-4 leukemia) 23.1 µM | GI50 (RXF 393 renal) 2.71 µM | GI50 (CAKI-1 renal) 2.54 µM | GI50 (HOP-92 NSCLC) 4.13 µM | GI50 (MCF7 breast) 4.3 µM | GI50 (A549 NSCLC) 25 µM | GI50 (HL-60(TB) leukemia) 7.01 µM | GI50 (OVCAR-3 ovarian) 3.15 µM | GI50 (SW-620 colon) 2.25 µM | GI50 (K-562 leukemia) 3.39 µM | GI50 (SK-MEL-28 melanoma) 13.4 µM | GI50 (SK-OV-3 ovarian) 17.9 µM | GI50 (SN12C renal) 11.4 µM | GI50 (SNB-75 CNS) 18.8 µM | GI50 (OVCAR-5 ovarian) 13.6 µM | GI50 (TK-10 renal) 3.44 µM | GI50 (HCC-2998 colon) 16.8 µM | GI50 (MDA-MB-231 breast) 11.8 µM | GI50 (UACC-257 melanoma) 13.4 µM | GI50 (NCI/ADR-RES ovarian) 11.8 µM | GI50 (RPMI-8226 leukemia) 3.16 µM | GI50 (SNB-19 CNS) 17.7 µM | GI50 (M14 melanoma) 10.9 µM | GI50 (LOX IMVI melanoma) 3.48 µM | GI50 (HCT-15 colon) 3.48 µM | GI50 (UO-31 renal) 2.58 µM | GI50 (HCT-116 colon) 2.5 µM | GI50 (DU-145 prostate) 10.8 µM | GI50 (IGROV1 ovarian) 4.3 µM | GI50 (786-0 renal) 9.76 µM | GI50 (NCI-H226 lung) 15.2 µM | GI50 (KM12 colon) 13.1 µM | GI50 (MALME-3M melanoma) 10.2 µM
13.4 µM: TGI (IGROV1 ovarian)
3.46 µM: TGI (NCI-H522 lung)
7.73 µM: TGI (TK-10 renal)
12.4 µM: TGI (LOX IMVI melanoma)
32.2 µM: TGI (NCI-H226 lung)
6.2 µM: TGI (HCT-116 colon)
24.6 µM: TGI (SK-MEL-5 melanoma)
7.29 µM: TGI (CCRF-CEM leukemia)
24.4 µM: TGI (MALME-3M melanoma)
51 µM: TGI (A549 NSCLC)
17.4 µM: TGI (HCT-15 colon)
21.6 µM: TGI (SF-539 CNS)
26.9 µM: TGI (KM12 colon)
55.2 µM: TGI (A498 renal)
19.4 µM: TGI (OVCAR-4 ovarian)
22.2 µM: TGI (BT-549 breast)
32.5 µM: TGI (U251 CNS)
15.2 µM: TGI (OVCAR-8 ovarian)
> 100 µM: TGI (HS 578T breast)
8.32 µM: TGI (RPMI-8226 leukemia)
28.7 µM: TGI (HT29 colon)
7.67 µM: TGI (UO-31 renal)
40.9 µM: TGI (NCI/ADR-RES ovarian)
23.9 µM: TGI (SN12C renal)
27.2 µM: TGI (MCF7 breast)
26.4 µM: TGI (M14 melanoma)
27.1 µM: TGI (UACC-257 melanoma)
28.9 µM: TGI (COLO 205 colon)
6.78 µM: TGI (CAKI-1 renal)
22.8 µM: TGI (DU-145 prostate)
27.4 µM: TGI (SK-MEL-28 melanoma)
23.8 µM: TGI (SR leukemia)
6.91 µM: TGI (MDA-MB-435)
33.8 µM: TGI (SNB-19 CNS)
4.9 µM: TGI (ACHN renal)
18.4 µM: TGI (K-562 leukemia)
32 µM: TGI (SK-OV-3 ovarian)
24.2 µM: TGI (SF-268 CNS)
53.7 µM: TGI (NCI-H460 lung)
8.85 µM: TGI (RXF 393 renal)
31.1 µM: TGI (HOP-62 NSCLC)
5.31 µM: TGI (SW-620 colon)
25.4 µM: TGI (MDA-MB-231 breast)
34.3 µM: TGI (SF-295 CNS)
28.2 µM: TGI (OVCAR-5 ovarian)

CO[C@@H]1CC[C@]2(C)OC[C@H](C)[C@@H]3C[C@@H](C)[C@@H](OC(C)=O)[C@@H]4[C@H]3[C@@H]2O[C@H]4C[C@@]1(C)O
inactive: GI50 (A498 renal) > 100 µM | GI50 (SF-268 CNS) > 100 µM | GI50 (OVCAR-8 ovarian) > 100 µM | GI50 (HT29 colon) > 100 µM | GI50 (ACHN renal) > 100 µM | GI50 (T-47D breast) > 100 µM | GI50 (BT-549 breast) > 100 µM | GI50 (SF-295 CNS) > 100 µM | GI50 (MDA-MB-435) > 100 µM | GI50 (SK-MEL-2 melanoma) > 100 µM | GI50 (U251 CNS) > 100 µM | GI50 (SR leukemia) > 100 µM | GI50 (NCI-H522 lung) > 100 µM | GI50 (SK-MEL-5 melanoma) > 100 µM | GI50 (COLO 205 colon) > 100 µM | GI50 (OVCAR-4 ovarian) > 100 µM | GI50 (NCI-H460 lung) > 100 µM | GI50 (HS 578T breast) > 100 µM | GI50 (SF-539 CNS) > 100 µM | GI50 (CCRF-CEM leukemia) > 100 µM | GI50 (MOLT-4 leukemia) > 100 µM | GI50 (RXF 393 renal) > 100 µM | GI50 (CAKI-1 renal) > 100 µM | GI50 (HOP-92 NSCLC) > 100 µM | GI50 (MCF7 breast) > 100 µM | GI50 (NCI-H23 lung) > 100 µM | GI50 (A549 NSCLC) > 100 µM | GI50 (HL-60(TB) leukemia) > 100 µM | GI50 (OVCAR-3 ovarian) 78.1 µM | GI50 (SW-620 colon) > 100 µM | GI50 (K-562 leukemia) > 100 µM | GI50 (SK-MEL-28 melanoma) > 100 µM | GI50 (SK-OV-3 ovarian) > 100 µM | GI50 (SN12C renal) > 100 µM | GI50 (SNB-75 CNS) > 100 µM | GI50 (OVCAR-5 ovarian) > 100 µM | GI50 (TK-10 renal) > 100 µM | GI50 (HCC-2998 colon) > 100 µM | GI50 (MDA-MB-231 breast) > 100 µM | GI50 (UACC-257 melanoma) > 100 µM | GI50 (NCI/ADR-RES ovarian) > 100 µM | GI50 (RPMI-8226 leukemia) > 100 µM | GI50 (SNB-19 CNS) > 100 µM | GI50 (LOX IMVI melanoma) > 100 µM | GI50 (HCT-15 colon) > 100 µM | GI50 (UO-31 renal) > 100 µM | GI50 (DU-145 prostate) > 100 µM | GI50 (IGROV1 ovarian) > 100 µM | GI50 (EKVX NSCLC) > 100 µM | GI50 (786-0 renal) > 100 µM | GI50 (NCI-H226 lung) > 100 µM | GI50 (KM12 colon) > 100 µM | GI50 (UACC-62 melanoma) > 100 µM | GI50 (MALME-3M melanoma) 63.9 µM
> 100 µM: TGI (A498 renal) | TGI (SF-268 CNS) | TGI (OVCAR-8 ovarian) | TGI (HT29 colon) | TGI (ACHN renal) | TGI (T-47D breast) | TGI (BT-549 breast) | TGI (SF-295 CNS) | TGI (MDA-MB-435) | TGI (SK-MEL-2 melanoma) | TGI (U251 CNS) | TGI (SR leukemia) | TGI (NCI-H522 lung) | TGI (SK-MEL-5 melanoma) | TGI (COLO 205 colon) | TGI (OVCAR-4 ovarian) | TGI (NCI-H460 lung) | TGI (HS 578T breast) | TGI (SF-539 CNS) | TGI (CCRF-CEM leukemia) | TGI (MOLT-4 leukemia) | TGI (RXF 393 renal) | TGI (CAKI-1 renal) | TGI (HOP-92 NSCLC) | TGI (MCF7 breast) | TGI (NCI-H23 lung) | TGI (A549 NSCLC) | TGI (HL-60(TB) leukemia) | TGI (OVCAR-3 ovarian) | TGI (SW-620 colon) | TGI (K-562 leukemia) | TGI (SK-MEL-28 melanoma) | TGI (SK-OV-3 ovarian) | TGI (SN12C renal) | TGI (SNB-75 CNS) | TGI (OVCAR-5 ovarian) | TGI (TK-10 renal) | TGI (HCC-2998 colon) | TGI (MDA-MB-231 breast) | TGI (UACC-257 melanoma) | TGI (NCI/ADR-RES ovarian) | TGI (RPMI-8226 leukemia) | TGI (SNB-19 CNS) | TGI (LOX IMVI melanoma) | TGI (HCT-15 colon) | TGI (UO-31 renal) | TGI (DU-145 prostate) | TGI (IGROV1 ovarian) | TGI (EKVX NSCLC) | TGI (786-0 renal) | TGI (NCI-H226 lung) | TGI (KM12 colon) | TGI (UACC-62 melanoma) | TGI (MALME-3M melanoma)

— PubChem BioAssay (NCI)
